Source: patent US20250144187A1, “COMBINATION OF HYDROLASES AND ANTI-MICROORGANISM DRUGS AND USES THEREOF” (CENTRE FOR EYE AND VISION RESEARCH LIMITED, priority 2023, published 2025)

Columns and labels:
MRSA = assay: ATP, NADH and pyruvate levels, cefdinir/lysozyme; type: cell-based, Staphylococcus aureus; details: 1 hour
Procedure: 12) ATP, NADH and pyruvate levels. According to the described method [Liu Y et al., Adv Sci 7, 1902227 (2020)], mid-log-phase MRSA with an OD600 of 0.4 to 0.6 was treated with lysozyme, cefdinir or their combination at different concentrations. Those without any treatment served as control group. After 1 hour incubation at 37° C. bacteria with similar load (according to OD600, 1 ml bacteria were collected if the OD600 was 1) were collected, washed by cold PBS for 3 times. […] Here, 20 μl of each supernatant were added each well of white 96-well plate, in which each well had been pre-reactivated by 100 μl of ATP test solution (Beyotime. Co. Ltd, China), followed by luminometer measurement. To analyze the NAD^+/NADH ratio [Xue C et al., Front Pharmacol 12, 6000296 (2021)], half of lysis supernatants were frozen at −20° C. immediately and the rest half were firstly heated at 60° C. for 30 minutes in PCR machine to decompose NAD^+ if had, Next, these heated supernatants were further centrifuged at 18,000 g at 4° C. for 20 minutes to collect their supernatants. […] After 30 minutes incubation in the prevention of light, orange formazan was observed and then the absorbance at 450 nm was recorded. […] By recording the absorbance at 520 nm, the pyruvate level in each sample was figured out according to the standard formula. […]

MRSA ocular infection = assay: Ocular infection model, tedizolid phosphate/lysozyme; type: in vivo, C57BL/6 mice
Source text: 20) Ocular infection model. According to the reported method [Zhang, Z et al., Curt. Protoc, mouse Bot 7, 55-63 (2017)], 40 C57BL/6, male mice ([…]) were used to evaluate the combination effect in the ocular infection model. Specifically, all mice were divided into 5 groups (4 infected groups and 1 uninfected group, 8 mice per group). Among than, 32 mice in infected groups were infected by slowly inoculating about 2.5×10^7 CFUs of mid-log phase MRSA into each ocular surface. To collect these mid-tog phase ARA, a colony of MRSA cultured in LB-agar plate was firstly picked up and inoculated into fresh LB medium for overnight incubation at 37° C. Then, the overnight culture was diluted (1:300) into fresh LB medium for continuous culture until bacterial OD600 was about 0.6. […] Next, 2.5 μl of bacterial suspensions were slowly inoculated into each ocular surface of anesthetized C57/BL6 mouse on the side of surgical bed. […] After that, they were repeated from the air-anesthetizing room and monitored until they were fully awake, followed by retuned to their cages. […] Then, according to the standard protocol^28, 3 μl of tear fluid was gradient-diluted at 10-fold in 96-well plat to figure out the initial number of viable bacteria in tear fluid according to quantitative grown colony after overnight culture. […]

Row | Compound | increasing ATP level (MRSA; cefdinir (0.5 μg/ml) + lysozyme (0.5 mg/ml)) [fold] | increase in the ratio of NAD+/NADH (MRSA; cefdinir treatment) [fold] | expression level of SP-D in tear fluids (MRSA ocular infection; combination group compared with uninfected group) [fold] | bacterial load in both tear fluids and eyeball homogenates (MRSA ocular infection; combination therapy (0.125 mg/ml tedizolid phosphate + 100 mg/ml lysozyme)) [fold]
1 | C=CC1=C(C(=O)O)N2C(=O)[C@@H](NC(=O)/C(=N\O)c3csc(N)n3)[C@H]2SC1 [cefdinir, Cefdinir] | 1.5 | 1.3 |  | 
2 | Cn1nnc(-c2ccc(-c3ccc(N4C[C@H](COP(=O)(O)O)OC4=O)cc3F)cn2)n1 [tedizolid phosphate, Tedizolid Phosphate] |  |  | 1.5 | 0.01
